Measurements: the NIST ThermoML archive (doi:10.1021/acs.jced.7b00604)

Assay: xn = mol fraction of the nth substance listed
Details: 100 kPa, Liquid; for speed of sound: Frequency=3 MHz, Sing-around technique in a fixed-path interferometer; for mass density: Vibrating tube method

COCCO [2-methoxyethan-1-ol] + CCCC[n+]1ccn(C)c1.O=S(=O)([N-]S(=O)(=O)C(F)(F)F)C(F)(F)F
Details | mass density [kg/m3] | speed of sound [m/s]
298.15 K, x2 = 0 | 960.31 | 1341.8
298.15 K, x2 = 0.0966 | 1098.07 | 1301.4
298.15 K, x2 = 0.1943 | 1188.97 | 1279.7
298.15 K, x2 = 0.2887 | 1250.58 | 1266
298.15 K, x2 = 0.3979 | 1302.72 | 1253.5
298.15 K, x2 = 0.4792 | 1332.79 | 1246.7
298.15 K, x2 = 0.5943 | 1365.91 | 1239.9
298.15 K, x2 = 0.6753 | 1384.52 | 1236.6
298.15 K, x2 = 0.8101 | 1409.81 | 1232.5
298.15 K, x2 = 0.8849 | 1421.49 | 1230.2
303.15 K, x2 = 0 | 955.71 | 1324.1
303.15 K, x2 = 0.0966 | 1093.42 | 1285.2
303.15 K, x2 = 0.1943 | 1184.24 | 1264.7
303.15 K, x2 = 0.2887 | 1245.82 | 1251.7
303.15 K, x2 = 0.3979 | 1298.03 | 1240.4
303.15 K, x2 = 0.4792 | 1328.12 | 1234.1
303.15 K, x2 = 0.5943 | 1361.32 | 1227.6
303.15 K, x2 = 0.6753 | 1379.92 | 1224.9
303.15 K, x2 = 0.8101 | 1405.23 | 1221.2
303.15 K, x2 = 0.8849 | 1416.91 | 1219
308.15 K, x2 = 0 | 951.08 | 1307.3
308.15 K, x2 = 0.0966 | 1088.78 | 1269.8
308.15 K, x2 = 0.1943 | 1179.32 | 1250.1
308.15 K, x2 = 0.2887 | 1240.86 | 1237.7
308.15 K, x2 = 0.3979 | 1292.99 | 1227.8
308.15 K, x2 = 0.4792 | 1323.11 | 1221.7
308.15 K, x2 = 0.5943 | 1356.31 | 1216.1
308.15 K, x2 = 0.6753 | 1374.96 | 1213.3
308.15 K, x2 = 0.8101 | 1400.24 | 1209.9
308.15 K, x2 = 0.8849 | 1411.97 | 1208.2
313.15 K, x2 = 0 | 946.41 | 1292
313.15 K, x2 = 0.0966 | 1084.06 | 1255.3
313.15 K, x2 = 0.1943 | 1174.55 | 1236.4
313.15 K, x2 = 0.2887 | 1236.14 | 1224.7
313.15 K, x2 = 0.3979 | 1288.26 | 1215.7
313.15 K, x2 = 0.4792 | 1318.36 | 1209.7
313.15 K, x2 = 0.5943 | 1351.69 | 1204.9
313.15 K, x2 = 0.6753 | 1370.39 | 1202
313.15 K, x2 = 0.8101 | 1395.76 | 1198.9
313.15 K, x2 = 0.8849 | 1407.44 | 1197.3
318.15 K, x2 = 0 | 941.72 | 1274.2
318.15 K, x2 = 0.0966 | 1079.38 | 1238.8
318.15 K, x2 = 0.1943 | 1169.76 | 1221.3
318.15 K, x2 = 0.2887 | 1231.28 | 1210.4
318.15 K, x2 = 0.3979 | 1283.31 | 1202.3
318.15 K, x2 = 0.4792 | 1313.34 | 1197.1
318.15 K, x2 = 0.5943 | 1346.72 | 1192.7
318.15 K, x2 = 0.6753 | 1365.42 | 1190.3
318.15 K, x2 = 0.8101 | 1390.82 | 1187.7
318.15 K, x2 = 0.8849 | 1402.59 | 1186.3
323.15 K, x2 = 0 | 936.99 | 1259.4
323.15 K, x2 = 0.0966 | 1074.61 | 1224.6
323.15 K, x2 = 0.1943 | 1165.02 | 1207.8
323.15 K, x2 = 0.2887 | 1226.67 | 1197.6
323.15 K, x2 = 0.3979 | 1278.8 | 1190.1
323.15 K, x2 = 0.4792 | 1308.85 | 1185
323.15 K, x2 = 0.5943 | 1342.24 | 1181.1
323.15 K, x2 = 0.6753 | 1361.02 | 1179.1
323.15 K, x2 = 0.8101 | 1386.53 | 1176.9
323.15 K, x2 = 0.8849 | 1398.24 | 1175.9
